Measured values published in patent US20140235542A1, “MODULAR, BIOACTIVE PEPTIDES FOR BINDING NATIVE BONE AND IMPROVING BONE GRAFT OSTEOINDUCTIVITY” (WISCONSIN ALUMNI RESEARCH FOUNDATION, priority 2013, published 2014).
Square brackets hold non-standard residues; d marks the D form. Ends that are not written are not given here. Gla = N[C@@H](CC(C(=O)O)C(=O)O)C(=O)O

What was measured:
[1] = Binding of 5(6)-FAM-conjugated modular peptides to HA-coated PLG films; details: 500 μg (1 mg/ml) 5(6)-FAM-conjugated peptide in PBS, 4 hr, 37° C., constant agitation
Protocol: Poly (lactide-coglycolide) (PLG) films were prepared via a solvent casting process in which PLG (85:15) pellets were dissolved in chloroform (50 mg/ml), added to a PTFE dish, and dried for 2 days. The films were further dried at 50-55° C. for 4 hr to remove residual solvent and samples were cooled to room temperature. Square films (1 cm^2) were manually cut out of the resulting PLG film sheets. A “bone-like” HA-based material layer was grown on the PLG films using a direct deposition technique by biomimetic mineralization in modified simulated body fluid (mSBF).
To measure the binding efficiency of modular peptides to the HA-coated PLG films and to gain preliminary insight into the properties that influence modular peptide immobilization, 1 cm^2 HA-coated PLG films was first exposed to PBS solutions containing 500 μg (1 mg/ml) of 5(6) FAM-conjugated eBMP-2, eBGu1, eBGu3, eBGa1, or eBGa3 modular peptide solution (See Table 1 for definitions of these abbreviations). The films were incubated in peptide solutions with constant agitation for 4 hr at 37° C., and the amount of free peptide remaining was determined by measuring the fluorescence emission of the solution (excitation: 494 nm; emission 519 nm) using a Synergy HT Multi-Detection Microplate Reader (BioTek, Winooski, Vt.), and comparing this emission to standard samples with known concentrations of 5(6)-FAM. To further characterize surface immobilization of the peptide with the highest binding efficiency—the eBGa3 peptide-1 cm^2 HA-coated films were incubated in various concentrations (50-750 nM) of 5(6)-FAM-conjugated eBGa3 peptide for 4 hr with constant agitation at 37° C. The amount of peptide bound to HA-coated film was again determined by fluorescence analysis, as described above.

[2] = Release kinetics of modular peptides from HA-coated film; details: after 5 days, PBS, 37° C.
Protocol: To quantify release kinetics of 5(6) FAM-conjugated modular peptides from HA-coated film, the films were first incubated in solutions containing 250 μM (˜500 μg) of each peptide (eBGu1, eBGu3, eBGa1, or eBGa3) to allow for binding (as described above), then incubated in 500 μl of PBS buffer at 37° C. with constant agitation for 5 days (eBGu1 and eBGu3 peptides) or 10 weeks (eBGa1 and eBGa3 peptides), respectively. Whole buffer solutions were changed at indicated time points and the amount of peptide released from the HA-coated film was determined via fluorescence analysis and comparison with standards containing known amounts of 5(6)-FAM. The fluorescent images of fluorescently-labeled peptides bound to HA-coated films were obtained using an Olympus IX51 fluorescence microscope (Olympus, Center Valley, Pa.).

[3] = Binding of rhodamine-labeled peptide to cortical bone; set-up: species or system sheep
Protocol: The native bone used were harvested from sheep tibia and bovine sternum. Cortical (compact) bone slices were collected from sheep tibia with periosteum removed, and trabecular (cancellous, spongy) bone cores were drilled out from bovine sternum under sterile conditions.
The peptide binding to native bones was tested in three different experiments. In the first experiment, the cortical bone slices were incubated in modular peptide solution (0.5 mL, PBS) with concentrations of 50, 100, 200 and 300 μg/mL. The incubation was continued in a static condition for a period of 0.5, 1, 2 and 3 hours. For another experiment, the trabecular bone cores were placed in the chamber of bone bioreactor where the peptide solution prepared in DMEM (100 μg/mL, 6.5 mL) was continuously circulated through the chamber for a time period of 2, 4, 6, 8 and 10 hours. In the last experiment, mBMP was bound in a spatially controlled manner by dip-coating, spotting or writing with mBMP solution on native bone tissues. Following each experiment, the bones were rinsed with PBS to remove unbound peptide and their fluorescence images were captured using a Typhoon fluorescence scanner (GE healthcare) or a Nikon Eclipse Ti inverted microscope. To quantify the fluorescence intensity, the images were converted into 8-bit using ImageJ to present the intensity level of each pixel in the range of 0 to 255. The mean pixel intensity of a selected region of interest was considered to be proportional to the amount of peptide bound.
To examine mBMP binding to cortical bone without periosteum (ca. 4 mm×7 mm×1.5 mm) from the shaft of sheep tibia, the bone tissue was incubated in mBMP solution prepared in phosphate buffered saline (PBS). The binding of mBMP was concentration-dependent for each incubation time tested (FIGS. 12 and 13A). The quantity of mBMP binding was proportional to the solution concentration, which was clearly observed through all concentrations at 0.5 hour. However, this dependence was not apparent at higher concentrations at later time points. […] The insignificant dependence on the incubation time is likely attributed to the rapid binding of mBMP to native bone tissue.

[4] = Binding of VEGF peptides to HA particles / HA slab
Protocol: The binding behavior of the peptides (both modular peptide, VEGF-OCN (SEQ ID NO:18), and VEGF-mimic) were analyzed and compared as described above. The amount of bound VEGF-OCN on the HA particle increased with peptide concentration and reached saturation at 15 μM (FIG. 8A).

[5] = system: mouse yolk sac endothelial C166-GFP cells; test: C166-GFP cell proliferation on peptide-treated HA slabs (CYQUANT); assay type: cell-based; details: 2-day culture on HA slab incubated in peptide solution
Protocol: Cells were again seeded at a density of 2×10^4 cells/cm^2 (4×10^4 cells per well) in 24-well plate. Prior to seeding, HA slabs (1 cm×1 cm) were incubated in peptide solution (PBS) for four hours at 37° C. and copiously rinsed with deionized water, and then placed in a well of the 24-well plate. After 1-day culture, cells were treated with 2 μM calcein AM solution, and imaged using Olympus IX-51 microscope.
Additionally, a cell number count of the C166-GFP cells as cultured in the presence of VEGF-OCN or VEGF mimic was determined For the cell count, cells were seeded at a density of 5×10^3 cells/cm^2 (1×10^4 cells per well) in a 24-well plate. After 2-day culture, cells were detached from the HA slab and cell number was assessed using CYQUANT assay.

Substance	binding efficiency on the HA-coated PLG films [1] [%]	peptide released from HA-coated films [2] [%]	further results
KIPKASSVPTELSAIATLYLAAAAEPRRAVAAL [eBGu1, modular BMP-2/OCN peptide with one Glu residue]	10.3±4.7	98.89±18.84	
KIPKASSVPTELSAISTLYLAAAAEPRREVAEL [eBGu3, modular BMP-2/OCN peptide with Glu in place of Gla at three positions]	7.6±7.8	93.33±17.24	dependence of binding to cortical bone on concentration and incubation time ([3]; 50-300 μg/mL in PBS, 0.5-3 hours): independent of incubation time and peptide concentration; amount of peptide bound to cortical bone ([3]; each experimental condition tested): significantly less than that of mBMP
KIPKASSVPTELSAISTLYLAAAAγEPRRAVAAL (KIPKASSVPTELSAISTLYLAAAA[Gla]PRRAVAAL-NH2; N-terminus assumed; SMILES CC[C@H](C)[C@H](NC(=O)[C@H](C)NC(=O)[C@H](CO)NC(=O)[C@H](CC(C)C)NC(=O)[C@H](CCC(=O)O)NC(=O)[C@@H](NC(=O)[C@@H]1CCCN1C(=O)[C@@H](NC(=O)[C@H](CO)NC(=O)[C@H](CO)NC(=O)[C@H](C)NC(=O)[C@H](CCCCN)NC(=O)[C@@H]1CCCN1C(=O)[C@@H](NC(=O)[C@@H](N)CCCCN)[C@@H](C)CC)C(C)C)[C@@H](C)O)C(=O)N[C@@H](CO)C(=O)N[C@H](C(=O)N[C@@H](CC(C)C)C(=O)N[C@@H](Cc1ccc(O)cc1)C(=O)N[C@@H](CC(C)C)C(=O)N[C@@H](C)C(=O)N[C@@H](C)C(=O)N[C@@H](C)C(=O)N[C@@H](C)C(=O)N[C@@H](CC(C(=O)O)C(=O)O)C(=O)N1CCC[C@H]1C(=O)N[C@@H](CCCNC(=N)N)C(=O)N[C@@H](CCCNC(=N)N)C(=O)N[C@@H](C)C(=O)N[C@H](C(=O)N[C@@H](C)C(=O)N[C@@H](C)C(=O)N[C@@H](CC(C)C)C(N)=O)C(C)C)[C@@H](C)O) [eBGa1, modular BMP-2/OCN peptide with one Gla residue]	29.9±2		
KLTWQELYQLKYKGI [VEGF-mimic, VEGF helical region mimic first synthesized by Pedon, et al, reference compound]			amount of peptide bound to HA slab ([4]; HA slab, qualitative comparison): much less than that of VEGF-OCN
KLTWQELYQLKYKGI-GGGAAAA-γEPRRγEVAγEL (KLTWQELYQLKYKGIGGGAAAA[Gla]PRR[Gla]VA[Gla]L) [VEGF-OCN]			peptide concentration at which bound amount on HA particle reached saturation ([4]; HA particles): 15 µM; effect of peptide-treated HA slab on cell number [5]: promoted cell proliferation
